Legend:
Format in all cases: functional
T47D [1] = test: Growth inhibition of human T47D cells assessed as cell growth at 3X10'-5 M after 48 hrs by sulforhodamine B assay; details: read-out: Activity
HCT-15 = test: Growth inhibition of human HCT15 cells assessed as cell growth at 3X10'-9 M after 48 hrs by sulforhodamine B assay; details: HCT-15, 48 h, read-out: Activity
SF-268 = test: Growth inhibition of human SF268 cells assessed as cell growth at 3X10'-8 M after 48 hrs by sulforhodamine B assay; details: SF-268, 48 h, read-out: Activity
MDA-MB-435 = test: Growth inhibition of human MDA-MB-435 cells assessed as cell growth at 3X10'-6 M after 48 hrs by sulforhodamine B assay; details: MDA-MB-435, 48 h, read-out: Activity
HL-60(TB) = test: Growth inhibition of human HL-60(TB) cells assessed as cell growth at 3X10'-5 M after 48 hrs by sulforhodamine B assay; details: HL-60, 48 h, read-out: Activity
COLO 205 = test: Growth inhibition of human COLO205 cells assessed as cell growth at 3X10'-8 M after 48 hrs by sulforhodamine B assay; details: COLO 205, 48 h, read-out: Activity
SN12C = test: Growth inhibition of human SN12C cells assessed as cell growth at 3X10'-9 M after 48 hrs by sulforhodamine B assay; details: read-out: Activity
[2] = Growth inhibition of human Hs 578T cells assessed as cell growth at 3X10'-7 M after 48 hrs by sulforhodamine B assay; details: read-out: Activity
T47D [3] = test: Growth inhibition of human T47D cells assessed as cell growth at 3X10'-7 M after 48 hrs by sulforhodamine B assay; details: read-out: Activity
SK-MEL-5 = test: Growth inhibition of human SK-MEL-5 cells assessed as cell growth at 3X10'-7 M after 48 hrs by sulforhodamine B assay; details: SK-MEL-5, 48 h, read-out: Activity
TK-10 [4] = test: Growth inhibition of human TK10 cells assessed as cell growth at 3X10'-7 M after 48 hrs by sulforhodamine B assay; details: TK-10, 48 h, read-out: Activity
T47D [5] = test: Growth inhibition of human T47D cells assessed as cell growth at 3X10'-6 M after 48 hrs by sulforhodamine B assay; details: read-out: Activity
NCI-H226 = test: Growth inhibition of human NCI-H226 cells assessed as cell growth at 3X10'-7 M after 48 hrs by sulforhodamine B assay; details: NCI-H226, 48 h, read-out: Activity
TK-10 [6] = test: Growth inhibition of human TK10 cells assessed as cell growth at 3X10'-9 M after 48 hrs by sulforhodamine B assay; details: TK-10, 48 h, read-out: Activity
SK-MEL-2 = test: Growth inhibition of human SK-MEL-2 cells assessed as cell growth at 3X10'-5 M after 48 hrs by sulforhodamine B assay; details: SK-MEL-2, 48 h, read-out: Activity
NCI-H522 = test: Growth inhibition of human NCI-H522 cells assessed as cell growth at 3X10'-8 M after 48 hrs by sulforhodamine B assay; details: NCI-H522, 48 h, read-out: Activity
DU-145 = test: Growth inhibition of human DU145 cells assessed as cell growth at 3X10'-7 M after 48 hrs by sulforhodamine B assay; details: DU-145, 48 h, read-out: Activity
SNB-75 = test: Growth inhibition of human SNB75 cells assessed as cell growth at 3X10'-9 M after 48 hrs by sulforhodamine B assay; details: SNB-75, 48 h, read-out: Activity
OVCAR-4 = test: Growth inhibition of human OVCAR4 cells assessed as cell growth at 3X10'-8 M after 48 hrs by sulforhodamine B assay; details: OVCAR-4, 48 h, read-out: Activity
UO-31 = test: Growth inhibition of human UO31 cells assessed as cell growth at 3X10'-7 M after 48 hrs by sulforhodamine B assay; details: UO-31, 48 h, read-out: Activity
RPMI-8226 = test: Growth inhibition of human RPMI8226 cells assessed as cell growth at 3X10'-5 M after 48 hrs by sulforhodamine B assay; details: RPMI-8226, 48 h, read-out: Activity
Malme-3M [7] = test: Growth inhibition of human MALME-3M cells assessed as cell growth at 3X10'-8 M after 48 hrs by sulforhodamine B assay; details: read-out: Activity
MCF7 = test: Growth inhibition of human MCF7 cells assessed as cell growth at 3X10'-8 M after 48 hrs by sulforhodamine B assay; details: MCF7, 48 h, read-out: Activity
OVCAR-8 [8] = test: Growth inhibition of human OVCAR8 cells assessed as cell growth at 3X10'-5 M after 48 hrs by sulforhodamine B assay; details: OVCAR-8, 48 h, read-out: Activity
Malme-3M [9] = test: Growth inhibition of human MALME-3M cells assessed as cell growth at 3X10'-7 M after 48 hrs by sulforhodamine B assay; details: read-out: Activity
ACHN = test: Growth inhibition of human ACHN cells assessed as cell growth at 3X10'-8 M after 48 hrs by sulforhodamine B assay; details: read-out: Activity
OVCAR-8 [10] = test: Growth inhibition of human OVCAR8 cells assessed as cell growth at 3X10'-7 M after 48 hrs by sulforhodamine B assay; details: OVCAR-8, 48 h, read-out: Activity
SK-MEL-28 = test: Growth inhibition of human SK-MEL-28 cells assessed as cell growth at 3X10'-9 M after 48 hrs by sulforhodamine B assay; details: SK-MEL-28, 48 h, read-out: Activity
[11] = Growth inhibition of human Hs 578T cells assessed as cell growth at 3X10'-6 M after 48 hrs by sulforhodamine B assay; details: read-out: Activity
UACC-257 = test: Growth inhibition of human UACC257 cells assessed as cell growth at 3X10'-6 M after 48 hrs by sulforhodamine B assay; details: UACC-257, 48 h, read-out: Activity
KM12 = test: Growth inhibition of human KM12 cells assessed as cell growth at 3X10'-8 M after 48 hrs by sulforhodamine B assay; details: KM12, 48 h, read-out: Activity
OVCAR-3 [12] = test: Growth inhibition of human OVCAR3 cells assessed as cell growth at 3X10'-6 M after 48 hrs by sulforhodamine B assay; details: OVCAR-3, 48 h, read-out: Activity
OVCAR-3 [13] = test: Growth inhibition of human OVCAR3 cells assessed as cell growth at 3X10'-7 M after 48 hrs by sulforhodamine B assay; details: OVCAR-3, 48 h, read-out: Activity
SF-295 = test: Growth inhibition of human SF295 cells assessed as cell growth at 3X10'-6 M after 48 hrs by sulforhodamine B assay; details: SF-295, 48 h, read-out: Activity
NCI-H23 = test: Growth inhibition of human NCI-H23 cells assessed as cell growth at 3X10'-8 M after 48 hrs by sulforhodamine B assay; details: NCI-H23, 48 h, read-out: Activity
NCI-H460 = test: Growth inhibition of human NCI-H460 cells assessed as cell growth at 3X10'-6 M after 48 hrs by sulforhodamine B assay; details: NCI-H460, 48 h, read-out: Activity

Structure (SMILES) | growth at 30 µM (T47D [1]) | growth at 0.003 µM (HCT-15) | growth at 0.03 µM (SF-268) | growth at 3 µM (MDA-MB-435) | growth at 30 µM (HL-60(TB)) | growth at 0.03 µM (COLO 205) | growth at 0.003 µM (SN12C) | growth at 0.3 µM [2] | growth at 0.3 µM (T47D [3]) | growth at 0.3 µM (SK-MEL-5) | growth at 0.3 µM (TK-10 [4]) | growth at 3 µM (T47D [5]) | growth at 0.3 µM (NCI-H226) | growth at 0.003 µM (TK-10 [6]) | growth at 30 µM (SK-MEL-2) | growth at 0.03 µM (NCI-H522) | growth at 0.3 µM (DU-145) | growth at 0.003 µM (SNB-75) | growth at 0.03 µM (OVCAR-4) | growth at 0.3 µM (UO-31) | also measured
O=C(Nc1cccc(-n2cc(-c3ccncc3)c(-c3ccc(Cl)c(O)c3)n2)c1)Nc1ccc(Cl)c(C(F)(F)F)c1 | 10% | 98% | 103% | -31% | 6% | 100% | 95% | 76% | 95% | 89% | 101% | 11% | 82% | 101% | -76% | 101% | 97% | 93% | 95% | 82% | growth at 30 µM (RPMI-8226): -15%; growth at 0.03 µM (Malme-3M [7]): 94%; growth at 0.03 µM (MCF7): 90%; growth at 30 µM (OVCAR-8 [8]): -14%; growth at 0.3 µM (Malme-3M [9]): 77%; growth at 0.03 µM (ACHN): 98%; growth at 0.3 µM (OVCAR-8 [10]): 89%; growth at 0.003 µM (SK-MEL-28): 103%; growth at 3 µM [11]: 9%; growth at 3 µM (UACC-257): -22%; growth at 0.03 µM (KM12): 103%; growth at 3 µM (OVCAR-3 [12]): -24%; growth at 0.3 µM (OVCAR-3 [13]): 101%; growth at 3 µM (SF-295): -22%; growth at 0.03 µM (NCI-H23): 100%; growth at 3 µM (NCI-H460): 4%
COc1cc(-c2nn(-c3cccc(NC(=O)Nc4ccc(Cl)c(C(F)(F)F)c4)c3)cc2-c2ccncc2)ccc1Cl | 8% | 94% | 103% | -36% | 6% | 103% | 95% | 89% | 95% | 87% | 101% | 18% | 85% | 101% | -64% | 104% | 103% | 90% | 96% | 85% | growth at 30 µM (RPMI-8226): -7%; growth at 0.03 µM (Malme-3M [7]): 102%; growth at 0.03 µM (MCF7): 92%; growth at 30 µM (OVCAR-8 [8]): -13%; growth at 0.3 µM (Malme-3M [9]): 96%; growth at 0.03 µM (ACHN): 98%; growth at 0.3 µM (OVCAR-8 [10]): 97%; growth at 0.003 µM (SK-MEL-28): 99%; growth at 3 µM [11]: 25%; growth at 3 µM (UACC-257): 20%; growth at 0.03 µM (KM12): 101%; growth at 3 µM (OVCAR-3 [12]): -14%; growth at 0.3 µM (OVCAR-3 [13]): 100%; growth at 3 µM (SF-295): -11%; growth at 0.03 µM (NCI-H23): 101%; growth at 3 µM (NCI-H460): 6%

— ChEMBL document CHEMBL2440076, “New triarylpyrazoles as broad-spectrum anticancer agents: design, synthesis, and biological evaluation” (Eur J Med Chem, 2013)
